Assay results: the NIST ThermoML archive (doi:10.1021/je900660x)
Numbers after ± are expanded uncertainties.

Legend:
[1] = for mass density / viscosity / thermal conductivity: 101.33 kPa, Liquid; for mass density: Vibrating tube method; for Glass transition temperature: DTA; for thermal conductivity: Hot wire method
[2] = molar heat capacity at constant pressure; conditions: 101.33 kPa, Liquid, Large sample (1 g) DSC

CCCC[N+](C)(CCCC)CCCC.NCCS(=O)(=O)[O-] [N,N-dibutyl-N-methyl-1-butanaminium 2-aminoethanesulfonate]
Conditions | mass density, [1] [kg/m3] | molar heat capacity at constant pressure, [2] [J/K/mol] | viscosity, [1] [mPa·s]
293.15 K | 1054.1 ± 6 | 822.3 ± 83 | –
298.15 K | 1051.1 ± 6 | 826.9 ± 84 | 6674 ± 2200
303.15 K | 1048.1 ± 5.9 | 831.7 ± 84 | 3965 ± 1200
313.15 K | 1041.6 ± 5.9 | 842.5 ± 85 | 1600 ± 380
323.15 K | 1035.7 ± 5.8 | 853.2 ± 86 | 716 ± 130
333.15 K | 1029.8 ± 5.7 | 863.2 ± 87 | 357.5 ± 48
343.15 K | 1023.9 ± 5.7 | 872.6 ± 88 | 193.4 ± 18
353.15 K | 1018 ± 5.6 | 882.4 ± 89 | 108.2 ± 6.3
363.15 K | 1012.1 ± 5.5 | 891.5 ± 90 | 66.8 ± 2.1

Conditions | Glass transition temperature [°C]
[1] | -54.23 ± 4

CCCC[N+](C)(CCCC)CCCC.NCCCC[C@H](N)C(=O)[O-] [N,N-dibutyl-N-methyl-1-butanaminium L-lysinate]
Conditions | mass density, [1] [kg/m3] | molar heat capacity at constant pressure, [2] [J/K/mol] | thermal conductivity, [1] [W/m/K] | viscosity, [1] [mPa·s]
293.15 K | 982.9 ± 5.2 | 817.3 ± 82 | – | –
298.15 K | 979.7 ± 5.2 | 823.8 ± 83 | 0.171 ± 0.01 | 2593 ± 690
303.15 K | 976.7 ± 5.2 | 830.8 ± 84 | 0.17 ± 0.01 | 1679 ± 400
313.15 K | 970.7 ± 5.1 | 845.6 ± 85 | 0.169 ± 0.01 | 741.4 ± 140
323.15 K | 964.7 ± 5 | 861.2 ± 87 | 0.168 ± 0.01 | 368.6 ± 51
333.15 K | 958.6 ± 5 | 877.7 ± 89 | 0.167 ± 0.01 | 200.2 ± 20
343.15 K | 952.7 ± 4.9 | 893.3 ± 90 | 0.166 ± 0.01 | 112.9 ± 6.9
353.15 K | 946.8 ± 4.9 | 909.5 ± 92 | 0.165 ± 0.01 | 68.3 ± 2.3
363.15 K | 940.8 ± 4.8 | 925.1 ± 93 | – | 43.9 ± 1.3

Conditions | Glass transition temperature [°C]
[1] | -59.39 ± 4

CCCC[N+](C)(CCCC)CCCC.C[C@@H](O)[C@H](N)C(=O)[O-] [N,N-dibutyl-N-methyl-1-butanaminium L-threoninate]
Conditions | mass density, [1] [kg/m3] | molar heat capacity at constant pressure, [2] [J/K/mol] | thermal conductivity, [1] [W/m/K] | viscosity, [1] [mPa·s]
293.15 K | 1002.6 ± 5.4 | 748.5 ± 76 | – | –
298.15 K | 999.5 ± 5.4 | 752.6 ± 76 | 0.16 ± 0.01 | 8368 ± 2900
303.15 K | 996.4 ± 5.4 | 757.1 ± 76 | 0.159 ± 0.01 | 4916 ± 1500
313.15 K | 990 ± 5.3 | 766.9 ± 78 | 0.158 ± 0.01 | 1845 ± 450
323.15 K | 983.7 ± 5.2 | 777.4 ± 78 | 0.157 ± 0.01 | 791.3 ± 150
333.15 K | 977.7 ± 5.2 | 789.2 ± 80 | 0.156 ± 0.01 | 377.6 ± 52
343.15 K | 971.7 ± 5.1 | 801 ± 81 | 0.155 ± 0.01 | 200.6 ± 20
353.15 K | 965.7 ± 5 | 811.5 ± 82 | 0.154 ± 0.01 | 110.9 ± 6.7
363.15 K | 959.8 ± 5 | 821.1 ± 83 | – | 66.2 ± 2.1

Conditions | Glass transition temperature [°C]
[1] | -51.94 ± 4

CCCC[N+](C)(CCCC)CCCC.N[C@@H](CO)C(=O)[O-] [N,N-dibutyl-N-methylbutanaminium L-serinate]
Conditions | mass density, [1] [kg/m3] | molar heat capacity at constant pressure, [2] [J/K/mol] | thermal conductivity, [1] [W/m/K] | viscosity, [1] [mPa·s]
293.15 K | 1018.8 ± 5.6 | 632.4 ± 64 | – | –
298.15 K | 1015.7 ± 5.6 | 634.8 ± 64 | 0.169 ± 0.01 | 10214 ± 3700
303.15 K | 1012.6 ± 5.5 | 637.6 ± 64 | 0.168 ± 0.01 | 5845 ± 1900
313.15 K | 1006.3 ± 5.5 | 643.6 ± 65 | 0.167 ± 0.01 | 2160 ± 550
323.15 K | 999.9 ± 5.4 | 651 ± 66 | 0.166 ± 0.01 | 890.7 ± 170
333.15 K | 993.9 ± 5.3 | 658 ± 66 | 0.165 ± 0.01 | 410.3 ± 59
343.15 K | 987.9 ± 5.3 | 665 ± 67 | 0.164 ± 0.01 | 207.9 ± 21
353.15 K | 981.9 ± 5.2 | 672.9 ± 68 | 0.163 ± 0.01 | 111.8 ± 6.8
363.15 K | 975.6 ± 5.1 | 680.8 ± 69 | – | 64.3 ± 2

Conditions | Glass transition temperature [°C]
[1] | -50.59 ± 4
